# Test results reported in publication PMC10963303 (Pharmacology Research & Perspectives, 2024).
# Like-named read-outs stand apart in the source and are kept apart here.
# Key:
# OAT3 = conditions: at 50 μM; cited from earlier work
# [1] = system: human P‐gp, BCRP, BSEP, MATE1, MATE2‐K, OAT1, OAT3, OATP1B1, OATP1B3, OCT1, OCT2; conditions: tested transporter panel (ulotaront: except OCT2); cited from earlier work
# MATE1 = conditions: at 50 μM; cited from earlier work
# [2] = human, in vivo, po, 100 mg
# [3] = system: 80 known receptors, ion channels, and enzyme targets; assay: Screen of 80 known receptors, ion channels, and enzyme targets; conditions: concentrations up to 10 μM; internal data
# OCT2 [4] = molecular target: T1, OCT2 (Homo sapiens, UniProt O15244); parameters: […]; from tissue; host or cells: kidney of adult human subjects with schizophrenia (in vivo clinical study); conditions: cited from earlier work
# T1 sequence (O15244 1-555): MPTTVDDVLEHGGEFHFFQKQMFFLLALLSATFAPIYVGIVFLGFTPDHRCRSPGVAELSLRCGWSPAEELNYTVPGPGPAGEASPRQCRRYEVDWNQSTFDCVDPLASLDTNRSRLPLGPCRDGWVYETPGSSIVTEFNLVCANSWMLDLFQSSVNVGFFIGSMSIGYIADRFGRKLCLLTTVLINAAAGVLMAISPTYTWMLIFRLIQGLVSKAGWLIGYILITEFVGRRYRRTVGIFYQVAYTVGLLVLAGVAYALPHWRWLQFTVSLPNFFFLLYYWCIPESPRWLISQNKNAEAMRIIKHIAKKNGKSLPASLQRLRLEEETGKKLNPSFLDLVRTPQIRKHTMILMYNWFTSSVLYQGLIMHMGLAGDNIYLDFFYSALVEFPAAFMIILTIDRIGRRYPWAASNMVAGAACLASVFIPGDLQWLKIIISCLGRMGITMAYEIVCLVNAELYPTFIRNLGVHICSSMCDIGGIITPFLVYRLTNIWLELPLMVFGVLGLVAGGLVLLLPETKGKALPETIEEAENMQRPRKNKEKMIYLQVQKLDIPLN
# [5] = plasma; placebo + metformin‐HCl 850 mg single dose
# OCT2 [6] = molecular target: T1, OCT2; assay: clinical; conditions: plasma, oral
# clinical = conditions: human, in vivo
compound,measurement,setting,value
O=C(O)[C@@H]1OCCc2ccsc21 [SEP‐383103],inhibition of OAT3,OAT3,~ 35%
same,inhibitor of human efflux and uptake transporters,[1],not an inhibitor
same,inhibition of MATE1,MATE1,~ 20%
same,"AUCinf, Geometric mean (CV%)",[2],2510 (30.1) ng * h/mL
same,"AUCinf, Mean (SD)",[2],2620 (797) ng * h/mL
same,"AUCinf, Median (min, max)",[2],"2490 (1550, 4810) ng * h/mL"
same,"AUClast, Geometric mean (CV%)",[2],2520 (29.7) ng * h/mL
same,"AUClast, Mean (SD)",[2],2630 (780) ng * h/mL
same,"AUClast, Median (min, max)",[2],"2490 (1540, 4760) ng * h/mL"
same,"C max, Geometric mean (CV%)",[2],150 (22.6) ng/mL
same,"C max, Mean (SD)",[2],154 (34.9) ng/mL
same,"C max, Median (min, max)",[2],"156 (99.7, 255) ng/mL"
same,"t 1/2, Mean (SD)",[2],9.17 (1.78) h
same,"t max, Median (min, max)",[2],"6.00 (3.00, 8.00) h"
same,binding or functional activity in screen of 80 targets,[3],did not identify binding or functional activity
C[C@@H]1CCO[C@H]2Cn3cc(C(=O)NCc4ccc(F)cc4F)c(=O)c(O)c3C(=O)N12 [dolutegravir],increase of metformin AUC,OCT2 [4]; co‐administration of 50 mg dolutegravir bid,145%
same,increase of metformin AUC,OCT2 [4]; co‐administration of 50 mg dolutegravir qd,79%
same,unbound C max/IC50 ratio (OCT2),OCT2 [4]; dolutegravir oral 50 mg qd or bid,2–3.6
CN(C)C(=N)N=C(N)N [metformin],"t max, Median (min, max)",[5],"4.0 (2.0, 5.0) h"
same,AUC(0-inf),OCT2 [6],12.5 µg·h/mL
same,Cmax,clinical,1.13 µg/mL
same,Tmax,clinical,4.5 h
same,Vd/F,clinical,1280 L
same,CL renal,"clinical; po, 850 mg",287 mL/min
